In ChEMBL document CHEMBL1142608, “A ceramide and cerebroside from the starfish asterias amurensis Lütken and their plant-growth promotion activities” (J Nat Prod, 2006):
Active and inactive are the calls of the source. The calls are words filed in the database; no cut-off is given here.

System: Brassica rapa subsp. oleifera
Assay: Growth-promoting activity in Brassica campestris assessed as root growth at 25 degC after 1 week by filter paper assay under 12 hrs/12 hrs light-dark cycle condition
Type: functional, organism-based

| Compound | Activity |
| --- | --- |
| CCCCCCCC/C=C\CCCCCCCC[C@@H](O)[C@@H](O)[C@H](CO)NC(=O)[C@H](O)CCCCCCCCCCCCCC | Active |

System: Brassica rapa subsp. oleifera
Assay: Growth-promoting activity in Brassica campestris assessed as whole body growth at 25 degC after 1 week by filter paper assay under 12 hrs/12 hrs light-dark cycle condition
Type: functional, organism-based

| Compound | Activity |
| --- | --- |
| CCCCCCCC/C=C\CCCCCC/C=C/[C@@H](O)[C@H](CO[C@@H]1O[C@H](CO)[C@@H](O)[C@H](O)[C@H]1O)NC(=O)[C@H](O)CCCCCCCCCCCCCC | Active |
| CCCCCCCC/C=C\CCCCCCC/C=C/[C@@H](O)[C@H](CO[C@@H]1O[C@H](CO)[C@@H](O)[C@H](O)[C@H]1O)NC(=O)[C@H](O)CCCCCCCCCCCC | Active |
| CC(C)CC(=O)C[C@@](C)(O)[C@H]1CC[C@H]2[C@@H]3C[C@H](O[C@@H]4O[C@H](C)C(=O)[C@H](O[C@@H]5O[C@H](C)[C@@H](O[C@@H]6O[C@H](C)[C@H](O)[C@H](O)[C@H]6O[C@@H]6O[C@H](C)[C@H](O)[C@H](O)[C@H]6O)[C@H](O)[C@H]5O[C@@H]5O[C@H](C)[C@@H](O)[C@H](O)[C@H]5O)[C@H]4O)[C@H]4C[C@@H](OS(=O)(=O)O)CC[C@]4(C)C3=CC[C@@]21C | inactive |
| CC(C)CC(=O)C[C@@](C)(O)[C@H]1CC[C@H]2[C@@H]3C[C@H](O[C@@H]4O[C@H](C)[C@@H](O)[C@H](O[C@@H]5OC[C@@H](O[C@@H]6O[C@H](CO)[C@H](O)[C@H](O)[C@H]6O[C@@H]6O[C@H](C)[C@@H](O)[C@H](O)[C@H]6O)[C@H](O)[C@H]5O[C@H]5O[C@@H](C)[C@H](O)[C@@H](O)[C@@H]5O)[C@H]4O)[C@H]4C[C@@H](OS(=O)(=O)O)CC[C@]4(C)C3=CC[C@@]21C | inactive |
| CCCCCCCC/C=C\CCCCCCC/C=C/[C@@H](O)[C@H](CO[C@@H]1O[C@H](CO)[C@@H](O)[C@H](O)[C@H]1O)NC(=O)[C@H](O)CCCCCCCCCCCCC | Active |
